Experimental data: patent US20260232578A1, “COMPOSITIONS AND METHODS FOR TRANSMUCOSAL ABSORPTION” (Tonix Pharma Limited, priority 2012, published 2026)
“And” between values parts separate entries of the source, which are not always exact repeats. Equal values may be shown once. Read-outs that look alike come from different tables or passages of the source.

Experiments:
5-HT2C receptor = biological target: T1, 5-HT2C receptor (Homo sapiens, UniProt P28335); experiment: Equilibrium receptor binding, recombinant human receptor
T1 construct: expressed in transfected cells
T1 sequence (P28335 33-458): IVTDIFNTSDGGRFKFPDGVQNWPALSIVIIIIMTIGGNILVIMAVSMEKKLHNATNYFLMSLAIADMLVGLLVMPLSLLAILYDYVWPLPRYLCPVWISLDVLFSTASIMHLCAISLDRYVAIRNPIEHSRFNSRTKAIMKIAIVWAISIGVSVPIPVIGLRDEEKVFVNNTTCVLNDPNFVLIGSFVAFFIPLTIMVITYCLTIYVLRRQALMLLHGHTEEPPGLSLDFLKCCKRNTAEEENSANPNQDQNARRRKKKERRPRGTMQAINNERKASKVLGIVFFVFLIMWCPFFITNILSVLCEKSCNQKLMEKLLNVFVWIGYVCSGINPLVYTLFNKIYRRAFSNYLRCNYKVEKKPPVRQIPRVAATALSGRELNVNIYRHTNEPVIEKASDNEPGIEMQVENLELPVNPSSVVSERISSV

D2S = biological target: T2, D2S (Homo sapiens, UniProt P14416); experiment: as above
T2 construct: expressed in transfected cells
T2 sequence (P14416 1-414 isoform P14416-2): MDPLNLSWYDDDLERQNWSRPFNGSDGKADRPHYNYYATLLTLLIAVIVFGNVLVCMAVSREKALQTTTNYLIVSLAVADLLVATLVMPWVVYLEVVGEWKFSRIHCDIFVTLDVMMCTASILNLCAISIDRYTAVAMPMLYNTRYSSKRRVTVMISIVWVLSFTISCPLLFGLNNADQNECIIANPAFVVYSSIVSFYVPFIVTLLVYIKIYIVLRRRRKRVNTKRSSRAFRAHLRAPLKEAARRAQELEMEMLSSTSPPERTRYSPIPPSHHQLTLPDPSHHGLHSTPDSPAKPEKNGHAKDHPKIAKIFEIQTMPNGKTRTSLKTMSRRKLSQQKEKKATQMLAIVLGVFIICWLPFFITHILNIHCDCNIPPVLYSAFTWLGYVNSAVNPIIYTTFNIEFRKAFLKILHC

D4.4 = biological target: T3, D4.4 (Homo sapiens, UniProt P21917); experiment: as above
T3 construct: expressed in transfected cells
T3 sequence (P21917 whole entry): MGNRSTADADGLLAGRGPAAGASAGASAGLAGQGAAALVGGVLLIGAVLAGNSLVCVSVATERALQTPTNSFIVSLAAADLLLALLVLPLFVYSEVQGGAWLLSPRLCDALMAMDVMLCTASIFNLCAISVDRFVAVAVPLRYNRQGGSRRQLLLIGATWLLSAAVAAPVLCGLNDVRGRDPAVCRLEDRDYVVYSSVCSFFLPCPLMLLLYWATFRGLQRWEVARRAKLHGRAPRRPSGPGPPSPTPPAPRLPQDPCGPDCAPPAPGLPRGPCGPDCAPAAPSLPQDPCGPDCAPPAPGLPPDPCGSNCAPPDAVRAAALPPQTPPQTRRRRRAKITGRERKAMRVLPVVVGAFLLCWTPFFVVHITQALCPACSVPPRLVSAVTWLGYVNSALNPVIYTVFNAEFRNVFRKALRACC

5-HT7 = biological target: T4, 5-HT7 (Homo sapiens, UniProt P34969); experiment: as above
T4 construct: expressed in transfected cells
T4 sequence (P34969 whole entry): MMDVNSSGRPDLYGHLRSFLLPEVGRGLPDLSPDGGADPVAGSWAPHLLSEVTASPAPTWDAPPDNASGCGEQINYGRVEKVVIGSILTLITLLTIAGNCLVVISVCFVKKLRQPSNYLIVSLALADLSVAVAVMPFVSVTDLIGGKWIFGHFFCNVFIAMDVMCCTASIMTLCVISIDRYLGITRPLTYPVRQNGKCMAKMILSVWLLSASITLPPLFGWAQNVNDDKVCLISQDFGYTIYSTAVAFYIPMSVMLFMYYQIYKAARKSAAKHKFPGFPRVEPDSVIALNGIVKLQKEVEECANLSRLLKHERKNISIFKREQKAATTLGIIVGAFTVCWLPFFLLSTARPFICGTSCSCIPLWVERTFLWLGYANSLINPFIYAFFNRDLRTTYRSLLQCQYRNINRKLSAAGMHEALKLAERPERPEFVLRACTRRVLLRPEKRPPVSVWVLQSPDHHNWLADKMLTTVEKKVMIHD

5-HT1A receptor = biological target: T5, 5-HT1A receptor (Homo sapiens, UniProt P08908); experiment: G-protein-dependent signal transduction (functional agonism); assay type: cell-based
T5 construct: expressed in transfected cells
T5 sequence (P08908 1-422): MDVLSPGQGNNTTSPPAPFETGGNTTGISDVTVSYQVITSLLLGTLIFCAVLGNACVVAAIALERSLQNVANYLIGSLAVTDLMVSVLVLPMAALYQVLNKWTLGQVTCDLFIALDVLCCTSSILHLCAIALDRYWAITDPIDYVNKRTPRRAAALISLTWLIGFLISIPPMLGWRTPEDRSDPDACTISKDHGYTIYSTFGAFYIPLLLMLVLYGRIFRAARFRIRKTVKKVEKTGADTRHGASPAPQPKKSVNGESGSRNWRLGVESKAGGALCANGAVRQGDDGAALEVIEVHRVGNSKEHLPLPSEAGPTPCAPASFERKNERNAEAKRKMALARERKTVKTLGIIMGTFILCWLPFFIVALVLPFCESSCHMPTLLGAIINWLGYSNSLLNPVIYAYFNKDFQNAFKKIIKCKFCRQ
Method: Quantitation was based on peak area ratio of the analytes versus their stable labeled internal standards. A weighted (1/C2), linear regression was performed to determine the concentration of the analytes. All regressions and figures presented in this validation report were generated by MDS Sciex Analyst version 1.4.2 and Thermo Electron Corporation Watson LIMS software, version 7.0.0.01b. […] Select receptors were analyzed in ligand-induced intracellular calcium mobilization.

histamine H1 receptor = biological target: T6, histamine H1 receptor (Homo sapiens, UniProt P35367); experiment: G-protein-dependent signal transduction, intracellular Ca2+ mobilization; assay type: cell-based; settings: for IC50: H1, Ca2+ mobilization, read-out: IC50, functional antagonist
T6 construct: expressed in transfected cells
T6 sequence (P35367 whole entry): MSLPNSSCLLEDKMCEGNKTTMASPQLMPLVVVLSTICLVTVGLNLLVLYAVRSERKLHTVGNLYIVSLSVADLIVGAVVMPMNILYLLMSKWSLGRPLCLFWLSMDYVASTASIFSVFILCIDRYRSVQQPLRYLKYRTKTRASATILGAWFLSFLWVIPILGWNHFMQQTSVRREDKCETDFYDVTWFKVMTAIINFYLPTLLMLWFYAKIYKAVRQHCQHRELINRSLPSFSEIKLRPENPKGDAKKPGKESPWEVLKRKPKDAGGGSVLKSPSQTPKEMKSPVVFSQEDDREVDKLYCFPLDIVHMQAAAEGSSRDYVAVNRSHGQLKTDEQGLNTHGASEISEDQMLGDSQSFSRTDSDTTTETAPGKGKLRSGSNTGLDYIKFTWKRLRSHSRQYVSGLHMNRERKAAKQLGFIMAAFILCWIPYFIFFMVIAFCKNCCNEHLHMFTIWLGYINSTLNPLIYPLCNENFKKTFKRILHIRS

adrenergic α1A receptor = biological target: T7, adrenergic α1A receptor (Homo sapiens, UniProt P35348); experiment: as above; assay type: cell-based; settings: for IC50: α1A, Ca2+ mobilization, read-out: IC50, functional antagonist
T7 construct: expressed in transfected cells
T7 sequence (P35348 1-466): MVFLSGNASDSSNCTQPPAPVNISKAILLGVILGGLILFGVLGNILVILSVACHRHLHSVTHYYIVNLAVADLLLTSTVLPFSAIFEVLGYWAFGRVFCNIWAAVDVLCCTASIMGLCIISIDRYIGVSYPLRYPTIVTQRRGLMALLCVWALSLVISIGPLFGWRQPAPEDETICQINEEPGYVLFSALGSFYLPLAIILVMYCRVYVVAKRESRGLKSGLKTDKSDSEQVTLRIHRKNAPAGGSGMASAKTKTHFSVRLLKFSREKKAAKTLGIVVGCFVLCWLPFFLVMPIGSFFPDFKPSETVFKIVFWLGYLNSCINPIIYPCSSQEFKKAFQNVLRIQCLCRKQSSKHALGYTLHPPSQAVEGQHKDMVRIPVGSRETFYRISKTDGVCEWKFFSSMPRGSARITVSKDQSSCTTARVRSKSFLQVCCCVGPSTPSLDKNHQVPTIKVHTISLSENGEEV

dopamine D1 receptor = biological target: T8, dopamine D1 receptor (Homo sapiens, UniProt P21728); experiment: G-protein-dependent signal transduction (Ca2+ mobilization, cAMP production or inositol triphosphate turnover); assay type: cell-based; settings: for IC50: read-out: IC50 (nM) (Antagonist)
T8 construct: expressed in transfected cells
T8 sequence (P21728 whole entry): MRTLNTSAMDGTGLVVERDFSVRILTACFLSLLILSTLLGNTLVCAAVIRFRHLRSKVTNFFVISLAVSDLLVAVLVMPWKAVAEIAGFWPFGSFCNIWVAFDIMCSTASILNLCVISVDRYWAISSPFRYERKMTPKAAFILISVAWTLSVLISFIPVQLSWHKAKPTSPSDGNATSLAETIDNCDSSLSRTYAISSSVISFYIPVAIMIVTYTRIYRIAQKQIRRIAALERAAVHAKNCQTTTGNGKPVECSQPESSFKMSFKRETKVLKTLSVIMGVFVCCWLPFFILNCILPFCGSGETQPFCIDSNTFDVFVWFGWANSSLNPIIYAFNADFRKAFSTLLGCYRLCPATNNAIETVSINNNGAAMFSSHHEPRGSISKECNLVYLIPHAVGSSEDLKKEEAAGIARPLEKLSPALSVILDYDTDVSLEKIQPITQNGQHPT

Sigma 2 = Sigma 2 (Homo sapiens, UniProt Q5BJF2); experiment: Equilibrium binding (Table 69)
Sequence of Sigma 2 (Q5BJF2 whole entry): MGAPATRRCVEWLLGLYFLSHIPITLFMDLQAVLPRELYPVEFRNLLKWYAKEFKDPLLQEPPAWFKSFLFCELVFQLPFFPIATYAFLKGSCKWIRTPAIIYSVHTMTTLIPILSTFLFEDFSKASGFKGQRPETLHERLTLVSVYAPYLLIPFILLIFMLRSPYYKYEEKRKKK

muscarinic M1 receptor [1] = biological target: T9, muscarinic M1 receptor (Homo sapiens, UniProt P11229); experiment: biochemical
T9 sequence (P11229 1-460): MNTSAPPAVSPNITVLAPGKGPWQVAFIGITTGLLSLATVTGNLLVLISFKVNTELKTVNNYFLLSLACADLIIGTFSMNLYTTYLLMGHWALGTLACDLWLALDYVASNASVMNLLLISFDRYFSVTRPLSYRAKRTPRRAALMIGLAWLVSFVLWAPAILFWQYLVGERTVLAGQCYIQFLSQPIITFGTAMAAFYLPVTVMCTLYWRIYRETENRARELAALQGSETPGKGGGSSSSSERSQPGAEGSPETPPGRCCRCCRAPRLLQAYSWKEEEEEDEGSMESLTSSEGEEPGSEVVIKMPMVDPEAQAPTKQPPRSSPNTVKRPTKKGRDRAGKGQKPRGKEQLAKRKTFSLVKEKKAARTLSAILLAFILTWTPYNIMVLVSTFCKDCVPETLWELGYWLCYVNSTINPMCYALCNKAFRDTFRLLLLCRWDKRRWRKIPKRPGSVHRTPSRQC

dopamine (D) transporter = dopamine (D) transporter (Homo sapiens, UniProt Q01959); experiment: biochemical
Sequence of dopamine (D) transporter (Q01959 whole entry): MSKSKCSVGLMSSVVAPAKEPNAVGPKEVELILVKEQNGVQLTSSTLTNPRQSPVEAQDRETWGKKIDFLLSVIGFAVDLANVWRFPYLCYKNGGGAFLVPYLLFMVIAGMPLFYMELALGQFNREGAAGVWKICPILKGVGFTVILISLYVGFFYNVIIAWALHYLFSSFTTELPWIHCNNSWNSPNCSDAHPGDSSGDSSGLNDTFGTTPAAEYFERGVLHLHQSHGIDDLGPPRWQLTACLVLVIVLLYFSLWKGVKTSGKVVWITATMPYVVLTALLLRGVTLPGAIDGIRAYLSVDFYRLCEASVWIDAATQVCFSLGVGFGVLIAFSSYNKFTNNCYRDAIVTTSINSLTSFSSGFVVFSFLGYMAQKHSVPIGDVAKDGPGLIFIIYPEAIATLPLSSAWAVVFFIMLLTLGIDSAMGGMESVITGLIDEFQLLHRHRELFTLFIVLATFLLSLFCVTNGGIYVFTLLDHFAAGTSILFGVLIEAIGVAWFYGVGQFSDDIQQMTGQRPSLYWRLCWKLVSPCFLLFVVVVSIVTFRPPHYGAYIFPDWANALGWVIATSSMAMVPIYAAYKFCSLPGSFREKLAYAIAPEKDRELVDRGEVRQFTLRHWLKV

5-HT6 = 5-HT6 (Homo sapiens, UniProt P50406); experiment: Equilibrium receptor binding, recombinant human receptor; design: expressed in transfected cells
Sequence of 5-HT6 (P50406 whole entry): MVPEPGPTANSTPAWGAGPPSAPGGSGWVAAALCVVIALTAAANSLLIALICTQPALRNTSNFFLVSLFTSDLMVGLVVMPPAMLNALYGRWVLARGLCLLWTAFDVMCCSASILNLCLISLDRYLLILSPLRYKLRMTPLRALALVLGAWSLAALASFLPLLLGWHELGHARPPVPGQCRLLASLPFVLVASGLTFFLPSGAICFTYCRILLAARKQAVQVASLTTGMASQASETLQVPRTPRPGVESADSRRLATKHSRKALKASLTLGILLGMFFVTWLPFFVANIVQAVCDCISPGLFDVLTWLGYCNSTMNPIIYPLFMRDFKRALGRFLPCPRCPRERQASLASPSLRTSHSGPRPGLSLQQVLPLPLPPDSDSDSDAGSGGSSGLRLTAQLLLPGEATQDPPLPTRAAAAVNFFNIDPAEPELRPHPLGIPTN

muscarinic M1 receptor [2] = biological target: T9, muscarinic M1 receptor; experiment: G-protein-independent signal transduction, β-arrestin signaling; assay type: cell-based; design: expressed in transfected cells; settings: for IC50: M1, β-arrestin signaling, read-out: IC50, functional antagonist
α1B = α1B (Homo sapiens, UniProt P35368); experiment: Functional antagonism, G-protein-dependent signal transduction (Table 69)
Sequence of α1B (P35368 whole entry): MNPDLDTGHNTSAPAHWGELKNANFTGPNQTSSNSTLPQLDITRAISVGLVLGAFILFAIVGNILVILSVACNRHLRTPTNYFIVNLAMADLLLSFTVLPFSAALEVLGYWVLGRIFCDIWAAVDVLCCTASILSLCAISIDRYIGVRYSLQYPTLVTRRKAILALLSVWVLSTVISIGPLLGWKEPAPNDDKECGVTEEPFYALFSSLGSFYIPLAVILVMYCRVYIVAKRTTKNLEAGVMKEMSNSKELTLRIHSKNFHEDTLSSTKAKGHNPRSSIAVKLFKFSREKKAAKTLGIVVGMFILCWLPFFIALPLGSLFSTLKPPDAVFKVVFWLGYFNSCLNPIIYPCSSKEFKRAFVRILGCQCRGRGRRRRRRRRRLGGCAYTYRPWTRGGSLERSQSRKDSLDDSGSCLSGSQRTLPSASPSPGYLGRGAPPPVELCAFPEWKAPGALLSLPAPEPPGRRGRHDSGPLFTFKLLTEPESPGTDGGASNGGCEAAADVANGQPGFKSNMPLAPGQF

[3] = read-out: EC50, functional agonist
[4] = read-out: IC50 (nM) (Antagonist)

SMILES | Ki (5-HT2C receptor) | Ki (D2S) [nM] | Ki (D4.4) [nM] | Ki (5-HT7) [nM] | EC50 (5-HT1A receptor; [3]) [nM] | IC50 (histamine H1 receptor) [nM] | IC50 (adrenergic α1A receptor) [nM] | IC50 (dopamine D1 receptor) [nM] | Ki (muscarinic M1 receptor [1]) [nM] | Ki (dopamine (D) transporter) [µM] | Ki (5-HT6) [nM] | IC50 (muscarinic M1 receptor [2]) [nM] | IC50 (α1B) [nM] | also measured
CN(C)CCC=C1c2ccccc2C=Cc2ccccc21 [cyclobenzaprine, 3-(5H-dibenzo[a,d]cyclohepten-5-ylidene)-N,N-dimethyl-1-propanamine] | 5.2 nM and 43 nM | 120 | 180 | 67 | 5300 | 5.2 | 4.9 | 65 | 7.9 | > 10 | 480 | 81 | 530 | EC50 (5-HT1A receptor; read-out: EC50 (nM) (Agonist)): 3200 nM; IC50 (Sigma 2; [4]): 2000 nM
CNCCC=C1c2ccccc2C=Cc2ccccc21 [norcyclobenzaprine, 3-(5H-dibenzo[a,d]cyclohepten-5-ylidene)-N-methyl-1-propanamine] | 43 nM | 410 | 250 | 140 | 3200 | 16 | 16 | 300 | 30 | > 10 | 1400 | 266 | 790 | Hill plot ratio (Hill slope) (5-HT2C receptor; equilibrium binding): 1.40; Four parameter Hill slope (or fit slope) ratio; Ca2+ signaling (5-HT1A receptor): −0.79; IC50 (5-HT1A receptor; [4]): 5300 nM; Four parameter Hill slope (or fit slope) ratio; Ca2+ signaling (histamine H1 receptor; H1): 0.79; Four parameter Hill slope (or fit slope) ratio; Ca2+ signaling (adrenergic α1A receptor; α-1A): 2.27; Four parameter Hill slope (or fit slope) ratio; Ca2+ signaling (dopamine D1 receptor): 0.98; Ki (Sigma 2): 480 nM; Four parameter Hill slope (or fit slope) ratio; β-arrestin signaling (muscarinic M1 receptor [2]; M1): 1.05
